PubChem BioAssay AID540268 (Broad Institute, 2011)
Activity calls are given as the source filed them. No rule for the calls is given here.

Experiment: growth inhibition of yeast carrying parasite Hsp90, dose response, anti-malarial Hsp90 inhibitor project, ATP luminescence, 48 h, cherry-picked samples (AID 540268);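 as to activity change, negative = inhibition: 0% = neutral control wells and -100% = positive control wells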
Details: yeast expressing the parasite Hsp90, ATP luminescence; for activity change, negative = inhibition: at 26 µM (top of the series)

SMILES | AC50 [µM] | activity change, negative = inhibition
c1ccc(-c2nnc(-c3ccccn3)nc2NC2CCCCC2)cc1 | 0.393 | 
O=C1Nc2ccc(Br)cc2/C1=C/C1CC=CCC1 (stereo not drawn) | 8.99 | 
CN(C)CC1CC/C(=C\c2ccc(O)cc2)C1=O (stereo not drawn) | 5.54 | 
Cc1ccc(-n2c(Cl)c(Cl)nc(Cl)c2=O)cc1 | 1.2 | 
O=C1c2ccccc2NC(c2ccc(-c3ccc(Br)cc3)o2)N1O (stereo not drawn) | 7.96 | 
C[C@@H]1C[C@@H]2O[C@H]2/C=C\C=C\C(=O)Cc2c(Cl)c(O)cc(O)c2C(=O)O1 | 2.51 | 
O=C(C=P(c1ccccc1)(c1ccccc1)c1ccccc1)c1ccccc1-c1ccccc1C(=O)C=P(c1ccccc1)(c1ccccc1)c1ccccc1 | 5.12 | 
O=C1[C@@H]2C(c3cccnc3)=NO[C@@H]2C(=O)N1c1ccc(Br)cc1 | 3.1 | 
O=C(Nc1cccc(C(F)(F)F)c1)Oc1ccc(Cl)c2cccnc12 | 4.93 | 
Cc1sc(NC(=O)c2ccco2)c(C(c2cccnc2)N2CCC(C)CC2)c1C (stereo not drawn) | 7.74 | 
CN(C)CC1Oc2ccccc2OC1(O)c1ccccc1 (stereo not drawn) | 2.98 | 
Cc1ccc2nc(-c3ccc(NS(C)(=O)=O)cc3)cc(-c3ccccc3)c2c1 | 2.95 | 
COc1ccccc1NC(=O)COC(=O)c1ccc([N+](=O)[O-])s1 | 3.02 | 
O=c1cc(CSc2ccc(Cl)cc2)nc(-c2ccccn2)[nH]1 | 16.6 | 
O=[N+]([O-])/C=C/c1cn(Cc2ccccc2)c2ccccc12 | 5.99 | 
Cc1cc(N2CCN(C(=O)c3ccco3)CC2)n2ncc(-c3ccccc3)c2n1 | 2.31 | 
N/C(Cc1ccc(Cl)c(Cl)c1)=N\OC(=O)c1ccc(Br)o1 |  | 66.7% (inactive)
CCOc1ccccc1N1CCN(C(=O)c2cccc(-c3ccc(O)cc3)c2)CC1 | 5.08 | 
CCN1/C(=C\c2ccc3cc(C)ccc3[n+]2CC)Sc2cc(C)c(C)cc21 | 3.51 | 
COc1ccc(-c2nc(-c3ccccn3)no2)cc1 | 16.2 | 
CC1(C)N=C(SCC(=O)Nc2ccc(Cl)cc2Cl)C(c2ccccc2)=N1 |  | 20.1% (inactive)
Cc1c(C(=O)N(Cc2ccccc2)Cc2cccs2)cnn1-c1ccc(Cl)cc1 | 5.05 | 
CCOc1cc(S(=O)(=O)NC2CCCCCC2)ccc1F | 5.56 | 

SMILES | AC50 [µM] | activity change, negative = inhibition
Cc1cc([N+](=O)[O-])c2ccccc2[n+]1[O-] | < 0.195 | 
Oc1ccc(N=Nc2ccc3ccccc3c2)cc1 | 4.26 | 
O=C(Nc1nc(-c2ccccn2)cs1)C1COc2ccccc2O1 (stereo not drawn) | 8.85 | 
COc1ccccc1C(=O)Nc1nc2ccccc2[nH]1 | 1.22 | 
CCOc1ccc2nc(NC(=O)c3ccoc3C)sc2c1 | 6.99 | 
COc1ccc2c(c1)CCc1c(C(=O)N3CCc4ccccc4C3)noc1-2 | 4.5 | 
Oc1c(CN2CCN(c3ccccc3)CC2)cc(Br)c2cccnc12 | 7.92 | 
COc1ccc(NC(=O)/C(Cl)=C(/Cl)S(=O)Cc2ccc(Cl)cc2)cn1 (stereo not drawn) | 0.837 | 
Oc1c(CN2CCN(c3ccc(F)cc3)CC2)cc(Cl)c2cccnc12 | < 0.195 | 
Oc1c(C(Nc2nc3ccccc3s2)c2ccco2)ccc2cccnc12 (stereo not drawn) | 24.8 | 
COc1ccccc1C(=O)NNC(=S)NC(=O)c1ccco1 | 2.41 | 
Cc1cc(N2CCN(c3cccc(C)c3C)CC2)nc(-c2ccccc2)n1 | 2.47 | 
CCc1ccc(OCC(=O)NNC(=S)NC(=O)C2CC2)c(Br)c1 | 1.12 | 
O=C(/C=C/c1ccc(Cl)c([N+](=O)[O-])c1)c1cccnc1 | 0.806 | 
O=[N+]([O-])c1c(Nc2ccccn2)cc(Cl)c2nonc12 | 0.803 | 
O=C1C=C(c2cccs2)C[C@H](c2ccccc2)[C@H]1n1nnc([N+](=O)[O-])n1 | 11.8 | 
O=C1OCC(CO)(CO)N=C1NNc1ccc(Cl)c(Cl)c1 | 2.2 | 
CC(C)(C)c1ccc(NC(=O)COC(=O)c2ccc([N+](=O)[O-])s2)cc1 | 3.88 | 
Cc1cc2c(cc1C)CSC(c1c(O)ccc3ccccc13)SC2 | 4.26 | 
CC1CCCCC1NC(=O)/C(C#N)=C/c1ccccc1F (stereo not drawn) | 0.87 | 
CC(=NNC(=S)N1CCC1)c1ccccn1 | 1.72 | 
CCCCCCCCCCCCCC(=O)NO | < 0.195 | 
O=C1C2(Cl)C3(Cl)C4(Cl)C(Cl)(Cl)C5(Cl)C3(Cl)C1(Cl)C5(Cl)C24Cl (stereo not drawn) | 2.93 | 

SMILES | AC50 [µM] | activity change, negative = inhibition
CCCCC(=O)NC(c1ccc(C(C)C)cc1)c1ccc2cccnc2c1O (stereo not drawn) | 6.98 | 
O=[N+]([O-])c1cccc(C=NNc2ccc3ccccc3n2)c1O | 3.63 | 
Oc1ccc(-c2c(-c3ccsc3)sc3ccccc23)cc1 | 2.72 | 
OCCOCCn1c(C2CCCN2c2nc(-c3ccc(F)cc3)cs2)nc2cc(Cl)c(Cl)cc21 (stereo not drawn) | 6 | 
O=C(/C=C/c1ccccc1Cl)c1ccc(O)cc1 | 4.63 | 
CC(C)N1CCN(c2ccc(OCC3COC(Cn4cncn4)(c4ccc(Cl)cc4Cl)O3)cc2)CC1 (stereo not drawn) | 1.12 | 
CCCCCCCCOC(=O)c1cc([N+](=O)[O-])c(Sc2ncnc3nc[nH]c23)c([N+](=O)[O-])c1 | 1.4 | 
O=C1NC(=S)NC(=O)C1=Cc1ccc(Br)s1 | 4.48 | 
CN(C)/C=C/C(=O)c1ccc(N2CCN(c3ncc(C(F)(F)F)cc3Cl)CC2)cc1 | 4.16 | 
CC1=CC(=O)C=C(C)C1=NOS(=O)(=O)c1ccccc1 | 1.4 | 
COc1ccc2c(c1)C=C(C(=O)NCc1ccc(Cl)cc1)CO2 | 4.21 | 
Cc1cc(C)c2c(N=NN3CCCCC3)[nH]nc2n1 | 4.73 | 
Nc1nonc1C(=O)NCCN=Cc1cc(Cc2ccccc2)cc(Br)c1O | 2.3 | 
O=C(Nc1nnc(-c2ccc(F)cc2)o1)c1cc(Cl)sc1Cl | 2.43 | 
Cc1ccc(O)c(NC(=S)NC(=O)c2ccc(-c3ccc(Cl)cc3)o2)c1 | 14.7 | 
COc1cccc(/C=N/Nc2ccc([N+](=O)[O-])cn2)c1O | 4.36 | 
Cc1[nH]c2ccc(C(=O)N3CCN(c4cccc(Cl)c4)CC3)cc2c1C | 8.89 | 
CC(=O)Nc1ccc(Nc2cc(C(C)C)nc3c(-c4ccccc4)c(C)nn23)cc1 | 3.68 | 
COc1cc2c(cc1OC)C(=O)N1[C@H]3c4ccccc4OC[C@@H]3[C@H](c3ccccc3)[C@]1(C)C(=O)N2 | 8.37 | 
COc1ccc(C2=CC3=C(Br)C(=O)C(C)(O)C(=O)C3=CO2)cc1 (stereo not drawn) | 1.73 | 
COc1cccc(/C=C2/CCC(CN(C)C)C2=O)c1 (stereo not drawn) | 7.93 | 
COc1ccccc1N=Nc1ccc(O)c2ncccc12 | 4.31 | 
CC(NNC(=S)N1CCN(c2ccccn2)CC1)c1nccc2ccccc12 (stereo not drawn) | 2.74 | 

SMILES | AC50 [µM] | activity change, negative = inhibition
CCOC(=O)c1cc([N+](=O)[O-])cc([N+](=O)[O-])c1Sc1ncnc2nc[nH]c12 |  | -6.96% (inactive)
O=C1/C(=C\c2ccc(Cl)c(Cl)c2)CN(C(=O)CCN2CCOCC2)C/C1=C/c1ccc(Cl)c(Cl)c1 | 3.5 | 
CCOc1ccc2c(ccc(/C=C/c3cc(C)c4cccnc4c3O)[n+]2C)c1 | 4.11 | 
O=C(Nc1ccccc1Cl)/C(Cl)=C(\Cl)S(=O)c1ccccc1 (stereo not drawn) | 0.718 | 
N/C(Cc1ccc(Cl)cc1Cl)=N\OC(=O)c1ccc(Br)o1 | 4.14 | 
CCN(CC)C1CC(=O)N(c2cccc(Cl)c2)C1=O (stereo not drawn) | 0.97 | 
Cc1[nH]oc(=O)c1N=Nc1c(Cl)cccc1Cl | 24.9 | 
CC(=O)N(C)c1ccc(OCC(O)Cn2c3ccc(Cl)cc3c3cc(Cl)ccc32)cc1 (stereo not drawn) | 4.56 | 
Cc1ccccc1Oc1cc(-n2ncc(Cl)c(Cl)c2=O)ncn1 | 1.11 | 
CC1CCN(C2CC(=O)N(c3ccc(Br)cc3Br)C2=O)CC1 (stereo not drawn) | 0.774 | 
CCC(=O)NC(c1ccc(Cl)cc1Cl)c1ccc2cccnc2c1O (stereo not drawn) | 3.96 | 
CCC(=O)NC(c1ccc(C)cc1)c1ccc2cccnc2c1O (stereo not drawn) | 3.48 | 
Cc1ccc(N2C(=O)C3C4C=CC(CNC(=S)Nc5ccc(Cl)cc5)(O4)C3C2=O)cc1 (stereo not drawn) | 11.9 | 
Clc1ccc(N=c2ssnc2Cl)cc1 | 2.69 | 
O=C(CC(O)(C(F)(F)F)C(F)(F)F)Nc1ccc(Cl)c(Cl)c1 | 17.5 | 
CCN1C/C(=C\c2cccc([N+](=O)[O-])c2)C(=O)/C(=C/c2cccc([N+](=O)[O-])c2)C1 | 5.63 | 
O=[N+]([O-])c1ccc(N2N=C(c3ccccc3)CC2c2ccccc2O)cc1 (stereo not drawn) | 3.91 | 
O=C1C=CC(=O)C2C1C1(Cl)C(Cl)=C(Cl)C2(Cl)C1(Cl)Cl (stereo not drawn) | 8.65 | 
C=CC(C)(C)c1c(O)c(CC=C(C)C)c(O)c2c(=O)c3ccc(O)c(O)c3oc12 | 6.76 | 
Cc1[nH]n(-c2ccc([N+](=O)[O-])cc2)c(=O)c1C=NCCN1CCN(C(=O)c2ccccc2F)CC1 | 6.44 | 
CCOc1ccc(N2C(=O)/C(=C\c3ccccc3OC)S(=O)(=O)C2c2cccc([N+](=O)[O-])c2)cc1 (stereo not drawn) | 21.6 | 
Cc1c(C)c2cccnc2c2ncccc12 | 4.22 | 
O=C(OCn1ncc(Br)c(Br)c1=O)c1ccccc1Cl | 4.29 | 

SMILES | AC50 [µM] | activity change, negative = inhibition
O=C(/C=C/c1cccc([N+](=O)[O-])c1)c1ccco1 | 4.27 | 
CCOC(=O)C1=Nc2ccccc2C1=[N+]=[N-] | 0.532 | 
CC(=NNC(=S)N1CC2CCC(CC2)C1)c1cnccn1 | < 0.195 | 
O=C(Nc1nc(-c2ccccn2)cs1)c1cc2ccccc2o1 | 4.24 | 
Cc1cc(/C=c2\sc3nc4ccccc4n3c2=O)c(C)n1-c1ccc(C(=O)O)cc1 |  | 22.6% (inactive)
Cc1ccc(OCC(=O)NNC(=S)NC(=O)C(C)(C)C)c(Br)c1 | 5.05 | 
CC(=O)N(C1=C(Cl)C(=O)c2ccccc2C1=O)C1CCCCC1 | < 0.195 | 
Clc1ccc(CCC(Cn2ccnc2)Sc2c(Cl)cccc2Cl)cc1 (stereo not drawn) | < 0.195 | 
O=S(=O)(NC1CC2CCC1C2)c1ccc(Cl)cc1 (stereo not drawn) | 3.46 | 
COc1ccc2c(n1)Sc1nc3ccccc3nc1N2 | 12.1 | 
O=C(/C=C/c1ccccc1)c1cc(Br)ccc(=O)c1O | 1.51 | 
O=C1C(=C(I)I)c2ccccc2-c2ccccc21 |  | 26.6% (inactive)
Cc1cccnc1Nc1nc(-c2ccccn2)cs1 | 4.32 | 
CC1=NNC(=O)/C1=C\c1cn(-c2ccccc2)nc1-c1cccs1 | 4.87 | 
Cc1ccc(N=N/C(=C\O)C(=O)c2ccc(Cl)cc2)cc1 | 8.29 | 
COc1cc(N(C)C)ccc1C=c1c2ccccc2n2c1cc(-c1ccccc1)[n+]2C | 7.55 | 
O=C(/C=C/c1ccccn1)c1cc(Br)ccc1O | 1.01 | 
O=C(C=Cc1ccccn1)c1ccccc1O | 3 | 
CCOc1ccc(S(=O)(=O)NCc2ccccn2)c(C)c1C |  | 14.4% (inactive)
CCCOc1ccc2ccccc2c1/C=C1\SC(=O)NC1=O | 7.76 | 
O=[N+]([O-])/C=C/c1cn(Cc2ccc(F)cc2)c2ccccc12 | 5.61 | 
